Source: patent publication US11203770B2, “Methods for producing caprylic acid and/or caprylate” (Cornell University, priority 2016, dated 2021)

How the values were obtained:
[1] = cited from earlier work
reactor microbiome = assay: inhibition of the chain-elongating reactor microbiome in the continuously fed upflow anaerobic filter; format: cell-based; details: for high residual concentration that inhibits microbial activity: bioreactor broth, mildly acidic pH, n-caprylic acid as undissociated acid
Protocol: Experimental. Continuously fed bioreactor system. An upflow anaerobic filter was used with constant bioreactor broth recycling through an in-line membrane liquid-liquid extraction (i.e. pertraction) system (FIG. 8). The bioreactor was a vertically oriented cylinder, which was made of Plexiglas®, with an inner diameter of 6 cm. The total volume was 0.90 L, but […]1 packing material (Evolution Aqua, Wigan, United Kingdom) was added, resulting in a working volume of 0.70 L. […] A pH probe (Mettler 405-[…], Columbus, Ohio, USA) was mounted at the top of the bioreactor. Automated pH control of the bioreactor broth was maintained with a controller (Eutech Instruments alpha-pH800, Vernon Hills, Ill., USA) and a corresponding acid addition pump ([…] 913, Bradenton, Fla., USA). […] The effluent continuously exited the bioreactor via an overflow line connected to the top of the bioreactor. The exit of the overflow line was submerged within a secondary effluent reservoir. An inverted funnel was used to collect the biogas within the bioreactor and was connected to a flow meter (Ritter MGC-1, Bochum, Germany). In addition, a gas-sample septum and a bubbler were placed in the gas collection system. A sampling port for biomass samples was placed halfway up the vertically oriented bioreactor. Periods for the bioreactor study. This bioreactor was divided into two phases: I) a start-up phase with continuous feeding (with the product extraction system on or off); and II) a high n-caprylate productivity phase (with continuous feeding and the product extraction system on). Each phase was then divided into several distinct operating periods. From period to period, several operating parameters were varied, including the: organic loading rate (OLR); HRT; bioreactor pH; and operation with or without product extraction (Table 1). Each operating period was operated for at least five HRT periods, and average bioreactor loading rates and concentrations were reported. During Period 1 in Phase I (Days 0-15), pre-washed inoculum was added to the upflow anaerobic filter after which a continuous feeding strategy was initiated. […] The bioreactor was re-inoculated on Day 15 of Period 2 in Phase I (Days 15-54) with pre-washed inoculum, and then again on Day 54 of Period 3 of Phase I (Days 54-64) with non-washed inoculum. This last inoculation carried some carboxylates from the inoculation bioreactor. During Period 4 of Phase I (Days 64-80), the product extraction was turned off. […] In addition, we increased the OLR from 1.8 to 3.8 g COD/L-d (Table 2). Day 98 represented the start of Phase II (Period 6; Days 98-128), by switching on the product extraction system. Next, we increased the OLRs in a step-wise fashion during 4 out of the next 5 periods in Phase II. […]

methanogens = assay: toxicity to methanogens in small serum bottles; format: cell-based; details: concentrations present in the bioreactor
From the text: Thus, at a pH of 7.0 we would have anticipated a methanogenic anaerobic digester rather than a chain elongating bioreactor. […] This explains why we can chain elongate at the higher pH levels without adding a methanogenic-inhibiting compound such as bromo-ethanesulfonate (BrES). […] This substantiates the claim that we can operate a chain elongating bioreactor sustainably at a pH level of 7.0.

Row | SMILES | solubility limit of the undissociated acid [1] [mM] | residual ethanol concentration at which microbial inhibition was reached (reactor microbiome; Period 11, bioreactor broth) [g COD/L] | high residual concentration that inhibits microbial activity (reactor microbiome) [mM] | toxic concentration, times lower than n-caproic acid (reactor microbiome; undissociated acids, toxicity to the community) | toxicity of undissociated acid to methanogens (methanogens)
1 | CCCCCC(=O)O [n-caproic acid] | 93 | – | – | – | –
2 | CCO [ethanol] | – | ~28 | ~300 | – | –
3 | CCCCCCCC(=O)O [n-caprylic acid] | – | – | 0.62 | approximately 10 × | toxic
